Our source for the EC50 values is BindingDB's records for doi:10.1021/acsmedchemlett.8b00379 (Bristol-Myers Squibb Research and Development, 2018).

Assay [1] can be described thus: Inhibition of HCV genotype 1a NS5B RNA dependent RNA polymerase infected in human HuH7 replicon cells after 3 days by luciferase reporter gene assay.
A short description of assay [2]: Inhibition of HCV genotype 2a JFH1 NS5B RNA dependent RNA polymerase infected in human HuH7 replicon cells after 3 days by luciferase reporter gene assay.
Assay [3] in a line: Inhibition of HCV genotype 1b NS5B RNA dependent RNA polymerase infected in human HuH7 replicon cells after 3 days by luciferase reporter gene assay.
Assay [4] in a line: Inhibition of HCV genotype 1b NS5B RNA dependent RNA polymerase C316N mutant infected in human HuH7 replicon cells after 3 days by luciferase reporter gene assay. Background: In antiviral work, replicon cells carry a viral genome segment that copies itself.

In general, EC50 refers to the midpoint of the concentration-response curve. High values mean weaker potency, low ones greater potency.

For `CCNc1cc2oc(-c3ccc(F)cc3)c(C(=O)NC)c2cc1-c1ccc(OC)c(C(=O)NC2(c3ncccn3)CC2)c1`, the EC50 worked out at 2.3 nM in assay [1], 12 nM in assay [2], 1.2 nM in assay [3] and 3.6 nM in assay [4].
As for `CCN(C(=O)C(F)(F)F)c1cc2oc(-c3ccc(F)cc3)c(C(=O)NC)c2cc1-c1ccc(OC)c(C(=O)NC2(c3ncccn3)CC2)c1`, it took 20 nM to reach a half-maximal effect in assay [2] (EC50).
On to `CNC(=O)c1c(-c2ccc(F)cc2)oc2ccc(-c3cccc(C(=O)NC4(c5ccccn5)CC4)c3)cc12`, for which the EC50 in assay [1] is 36 nM; in assay [2], 515 nM; in assay [3], 3.8 nM; in assay [4], 75 nM.
Consider `CNC(=O)c1c(-c2ccc(F)cc2)oc2cc(N(CCO)S(C)(=O)=O)c(-c3cccc(C(=O)NC4(c5ccccn5)CC4)c3)cc12`, for which the EC50 in assay [1] was found to be 35 nM; in assay [2], 22 nM; in assay [3], 52 nM; in assay [4], 385 nM.
For `CNC(=O)c1c(-c2ccc(F)cc2)oc2cc(N(CCO)S(C)(=O)=O)c(-c3cccc(C(=O)NC4(c5ccccc5)CC4)c3)cc12` the same measures were 5.7 nM, 8.6 nM, 6.2 nM and 64 nM.
For the compound `CCN(c1cc2oc(-c3ccc(F)cc3)c(C(=O)NC)c2cc1-c1cccc(C(=O)NC2(c3ncccn3)CC2)c1)S(C)(=O)=O`, the EC50 was determined as 7.7 nM in assay [1], 5.4 nM in assay [2], 8.8 nM in assay [3] and 44 nM in assay [4].
Turning to `CCN(c1cc2oc(-c3ccc(F)cc3)c(C(=O)NC)c2cc1-c1ccc(OC)c(C(=O)NC2(c3ncccn3)CC2)c1)S(C)(=O)=O`, it took 13 nM to reach a half-maximal effect in assay [2] (EC50).
Consider `CCN(C(=O)OC)c1cc2oc(-c3ccc(F)cc3)c(C(=O)NC)c2cc1-c1ccc(OC)c(C(=O)NC2(c3ncccn3)CC2)c1`, for which the EC50 in assay [2] was determined as 15 nM.
Take `CCN(C(C)=O)c1cc2oc(-c3ccc(F)cc3)c(C(=O)NC)c2cc1-c1ccc(OC)c(C(=O)NC2(c3ncccn3)CC2)c1`: it took 35 nM to reach a half-maximal effect in assay [2] (EC50).
Consider `CCN(c1cc2oc(-c3ccc(F)cc3)c(C(=O)NC)c2cc1-c1cc(Cl)c(OC)c(C(=O)NC2(c3ncccn3)CC2)c1)S(C)(=O)=O`, for which the EC50 in assay [2] is 6.6 nM.
`CCN(c1cc2oc(-c3ccc(F)cc3)c(C(=O)NC)c2cc1-c1cc(F)c(F)c(C(=O)NC2(c3ncccn3)CC2)c1)S(C)(=O)=O` had an EC50 in assay [2] of 9 nM.
`CCN(c1cc2oc(-c3ccc(F)cc3)c(C(=O)NC)c2cc1-c1cc(C)c(OC)c(C(=O)NC2(c3ncccn3)CC2)c1)S(C)(=O)=O`: the EC50 in assay [2] was 16 nM.
For the compound `CCN(C(=O)N(C)C)c1cc2oc(-c3ccc(F)cc3)c(C(=O)NC)c2cc1-c1ccc(OC)c(C(=O)NC2(c3ncccn3)CC2)c1`, the EC50 in assay [2] was 165 nM.
With `CCN(c1cc2oc(-c3ccc(F)cc3)c(C(=O)NC)c2cc1-c1cc(F)c(OC)c(C(=O)NC2(c3ncccn3)CC2)c1)S(C)(=O)=O`, in assay [2], the response was half-maximal at 8.8 nM (EC50).
